The test system of this test is F. succinogenes HC4. Nature of the test: Phenotypic tests for antibiotic resistance. It counts as cell-based, Fibrobacter succinogenes. The conditions noted are these: liquid filter paper semi-synthetic medium, anaerobic, 48 hours at 38° C. Here is the method: Eight antibiotics were tested according to EFSA recommendations for Gram-negative bacteria (31). Before being added to the filter paper semi-synthetic medium, the antibiotics were sterilized by filtration (0.22 μm filters). 24-hours cultures of strain HC4 were inoculated into media containing each antibiotic. A positive control without antibiotics was inoculated from the same culture of strain HC4 and two cultures were prepared for each condition. After 48 hours of incubation at 38° C., the observation of filter paper degradation allowed estimating the bacterial growth. In case of no degradation, a sample of liquid was taken and frozen at −20° C. for further determination of succinate production.

For `CC1(C)S[C@@H]2[C@H](NC(=O)[C@H](N)c3ccccc3)C(=O)N2[C@H]1C(=O)O` [Ampicillin], the “Concentrations to inhibit growth” value came to 32 mg/L.

Regarding `C[C@@H]1O[C@@H]1P(=O)(O)O` [Fosfomycin], the “Concentrations to inhibit growth” value came out at 512 mg/L.

For `NC[C@H]1O[C@H](O[C@H]2[C@H](O)[C@@H](O[C@H]3O[C@H](CO)[C@@H](O)[C@H](N)[C@H]3O)[C@H](N)C[C@@H]2N)[C@H](O)[C@@H](O)[C@@H]1O` [Kanamycin], the “Concentrations to inhibit growth” value is 8000 mg/L.

As for `[H]/N=C(/N)N[C@H]1[C@H](O)[C@@H](O)[C@H](O[C@@H]2O[C@@H](C)[C@](O)(C=O)[C@H]2O[C@@H]2O[C@@H](CO)[C@H](O)[C@@H](O)[C@@H]2NC)[C@@H](N/C(N)=N\[H])[C@@H]1O` [Streptomycin], the “Concentrations to inhibit growth” value is recorded as 2048 mg/L.

Turning to `CN(C)[C@@H]1C(=O)C(C(N)=O)=C(O)[C@@]2(O)C(=O)C3=C(O)c4c(O)cccc4[C@@](C)(O)[C@H]3C[C@@H]12` [Tetracyclin], the “Concentrations to inhibit growth” value came out at 1 mg/L.

On to Colistin, for which the “Concentrations to inhibit growth” value is reported as 64 mg/L.

As to Gentamicin, the “Concentrations to inhibit growth” value stood at 128 mg/L.

The values above are taken from patent US12636322B2, “Bacterial strain with high cellulolytic activity” (INSTITUT NATIONAL SUPERIEUR DES SCIENCES AGRONOMIQUES DE …, priority 2021, dated 2026).
